From ChEMBL document CHEMBL5303573, “Mapping human microbiome drug metabolism by gut bacteria and their genes” (Nature, 2019)

Legend:
Type in all cases: ADME
Design in all cases: dose 2 uM, timepoint 0, 1, 2, 4, 6, 8, 12, 18, 24 hours
Conditions in all cases: 2 µM
[1] = The drug is tested on the gut metagenome community of MV01 with ENA study accession number: PRJEB31790 and ENA sample accession number: SAMEA5537482 for biotransformation. The drug concentrations were measured over 9 timepoints collected between 0 and 24 hours of incubation by liquid-chromatography-coupled mass spectrometry (LC–MS)
[2] = The drug is tested on the gut metagenome community of MV02 with ENA study accession number: PRJEB31790 and ENA sample accession number: SAMEA5537483 for biotransformation. The drug concentrations were measured over 9 timepoints collected between 0 and 24 hours of incubation by liquid-chromatography-coupled mass spectrometry (LC–MS)
[3] = The drug is tested on the gut metagenome community of MV03 with ENA study accession number: PRJEB31790 and ENA sample accession number: SAMEA5537484 for biotransformation. The drug concentrations were measured over 9 timepoints collected between 0 and 24 hours of incubation by liquid-chromatography-coupled mass spectrometry (LC–MS)
[4] = The drug is tested on the gut metagenome community of MV06 with ENA study accession number: PRJEB31790 and ENA sample accession number: SAMEA5537487 for biotransformation. The drug concentrations were measured over 9 timepoints collected between 0 and 24 hours of incubation by liquid-chromatography-coupled mass spectrometry (LC–MS)
[5] = The drug is tested on the gut metagenome community of MV07 with ENA study accession number: PRJEB31790 and ENA sample accession number: SAMEA5537488 for biotransformation. The drug concentrations were measured over 9 timepoints collected between 0 and 24 hours of incubation by liquid-chromatography-coupled mass spectrometry (LC–MS)
[6] = The drug is tested on the gut metagenome community of MV08 with ENA study accession number: PRJEB31790 and ENA sample accession number: SAMEA5537489 for biotransformation. The drug concentrations were measured over 9 timepoints collected between 0 and 24 hours of incubation by liquid-chromatography-coupled mass spectrometry (LC–MS)
[7] = The drug is tested on the gut metagenome community of MV11 with ENA study accession number: PRJEB31790 and ENA sample accession number: SAMEA5537492 for biotransformation. The drug concentrations were measured over 9 timepoints collected between 0 and 24 hours of incubation by liquid-chromatography-coupled mass spectrometry (LC–MS)
[8] = The drug is tested on the gut metagenome community of MV13 with ENA study accession number: PRJEB31790 and ENA sample accession number: SAMEA5537494 for biotransformation. The drug concentrations were measured over 9 timepoints collected between 0 and 24 hours of incubation by liquid-chromatography-coupled mass spectrometry (LC–MS)
[9] = The drug is tested on the gut metagenome community of MV15 with ENA study accession number: PRJEB31790 and ENA sample accession number: SAMEA5537496 for biotransformation. The drug concentrations were measured over 9 timepoints collected between 0 and 24 hours of incubation by liquid-chromatography-coupled mass spectrometry (LC–MS)
[10] = The drug is tested on the gut metagenome community of MV16 with ENA study accession number: PRJEB31790 and ENA sample accession number: SAMEA5537497 for biotransformation. The drug concentrations were measured over 9 timepoints collected between 0 and 24 hours of incubation by liquid-chromatography-coupled mass spectrometry (LC–MS)
[11] = The drug is tested on the gut metagenome community of MV18 with ENA study accession number: PRJEB31790 and ENA sample accession number: SAMEA5537499 for biotransformation. The drug concentrations were measured over 9 timepoints collected between 0 and 24 hours of incubation by liquid-chromatography-coupled mass spectrometry (LC–MS)
[12] = The drug is tested on the gut metagenome community of MV19 with ENA study accession number: PRJEB31790 and ENA sample accession number: SAMEA5537500 for biotransformation. The drug concentrations were measured over 9 timepoints collected between 0 and 24 hours of incubation by liquid-chromatography-coupled mass spectrometry (LC–MS)
[13] = The drug is tested on the gut metagenome community of MV21 with ENA study accession number: PRJEB31790 and ENA sample accession number: SAMEA5537502 for biotransformation. The drug concentrations were measured over 9 timepoints collected between 0 and 24 hours of incubation by liquid-chromatography-coupled mass spectrometry (LC–MS)
[14] = The drug is tested on the gut metagenome community of MV23 with ENA study accession number: PRJEB31790 and ENA sample accession number: SAMEA5537504 for biotransformation. The drug concentrations were measured over 9 timepoints collected between 0 and 24 hours of incubation by liquid-chromatography-coupled mass spectrometry (LC–MS)
[15] = The drug is tested on the gut metagenome community of MV24 with ENA study accession number: PRJEB31790 and ENA sample accession number: SAMEA5537505 for biotransformation. The drug concentrations were measured over 9 timepoints collected between 0 and 24 hours of incubation by liquid-chromatography-coupled mass spectrometry (LC–MS)
[16] = The drug is tested on the gut metagenome community of MV27 with ENA study accession number: PRJEB31790 and ENA sample accession number: SAMEA5537508 for biotransformation. The drug concentrations were measured over 9 timepoints collected between 0 and 24 hours of incubation by liquid-chromatography-coupled mass spectrometry (LC–MS)

SMILES: C[C@@H]1C[C@H]2[C@@H]3CCC4=CC(=O)C=C[C@]4(C)[C@@]3(F)[C@@H](O)C[C@]2(C)[C@@]1(O)C(=O)CO [DEXAMETHASONE]
- Bacterial Biotransformation [1]: Compound NOT metabolized
- Bacterial Biotransformation [2]: Compound NOT metabolized
- Bacterial Biotransformation [3]: Compound metabolized
- Bacterial Biotransformation [4]: Compound NOT metabolized
- Bacterial Biotransformation [5]: Compound NOT metabolized
- Bacterial Biotransformation [6]: Compound NOT metabolized
- Bacterial Biotransformation [7]: Compound NOT metabolized
- Bacterial Biotransformation [8]: Compound NOT metabolized
- Bacterial Biotransformation [9]: Compound NOT metabolized
- Bacterial Biotransformation [10]: Compound NOT metabolized
- Bacterial Biotransformation [11]: Compound NOT metabolized
- Bacterial Biotransformation [12]: Compound NOT metabolized
- Bacterial Biotransformation [13]: Compound NOT metabolized
- Bacterial Biotransformation [14]: Compound NOT metabolized
- Bacterial Biotransformation [15]: Compound metabolized
- Bacterial Biotransformation [16]: Compound NOT metabolized
